# Laboratory results reported in patent US7524639B2, “Assay for screening antipsychotic drugs” (priority 2003, dated 2009).
# Like-named read-outs stand apart in the source and are kept apart here.
# Legend:
# [1] = molecular target: T1, rat 5-HT2A receptor tagged with EGFP (Rattus norvegicus, UniProt P14842); experiment: Internalization of GFP-tagged 5-HT2A receptor in transiently transfected, differentiated N1E-115 neuronal cells, confocal fluorescence microscopy; type: cell-based; details: drug applied for 10 mins, cycloheximide present
# T1 construct: tagged at the C-terminus of the full-length rat 5-HT2A receptor (SR2-GFP); expressed in transfected cells; transiently transfected, differentiated N1E-115 cells (A2)
# T1 sequence (P14842 whole entry): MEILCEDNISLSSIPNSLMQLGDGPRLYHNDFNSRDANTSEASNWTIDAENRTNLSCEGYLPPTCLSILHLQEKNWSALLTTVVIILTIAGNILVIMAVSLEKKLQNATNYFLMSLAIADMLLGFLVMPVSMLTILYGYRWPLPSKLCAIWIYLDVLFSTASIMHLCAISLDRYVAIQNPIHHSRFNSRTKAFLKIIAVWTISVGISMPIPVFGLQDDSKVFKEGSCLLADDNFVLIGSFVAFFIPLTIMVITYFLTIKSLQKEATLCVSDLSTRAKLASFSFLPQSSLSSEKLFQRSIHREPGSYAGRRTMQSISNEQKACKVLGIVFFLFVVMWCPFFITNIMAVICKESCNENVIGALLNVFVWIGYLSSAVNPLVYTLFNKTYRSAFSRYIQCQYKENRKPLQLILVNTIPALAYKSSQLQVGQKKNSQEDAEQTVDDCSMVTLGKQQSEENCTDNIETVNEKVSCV
# [2] = values from Goodman & Gilman's (Baldessarini and Tarazi 2001) or other published medical sources, cited from earlier work
# [3] = molecular target: T1, rat 5-HT2A receptor tagged with EGFP; experiment: Internalization of GFP-tagged 5-HT2A receptor in SB1 cells (HEK293 stable line), confocal fluorescence microscopy; type: cell-based; details: drug applied for 10 mins, cycloheximide present
Receptor internalization N1E-115 cells (pattern of internalization) [1],Receptor internalization SB1 cells (pattern of internalization) [3],Compound,Extrapyramidal side effects (EPS) [2],further results
Type B,Type C,OCCN1CCN(CC/C=C2/c3ccccc3Sc3ccc(Cl)cc32)CC1 [Zuclopenthixol],Moderate,–
–,–,OCCN1CCN(CCCN2c3ccccc3Sc3ccc(C(F)(F)F)cc32)CC1 [Fluphenazine],Very high,Extrapyramidal side effects (EPS) ([2]; listed as fluphenazine): severe
–,–,O=C(CCCN1CCC(O)(c2ccc(Cl)cc2)CC1)c1ccc(F)cc1 [Haloperidol],Very high,Extrapyramidal side effects (EPS) ([2]; listed as haloperidol): severe
Type B,Type B,O=C1Cc2cc(CCN3CCN(c4nsc5ccccc45)CC3)c(Cl)cc2N1 [Ziprasidone],Moderate,–
–,–,CN1CCN(C2=Nc3cc(Cl)ccc3Nc3ccccc32)CC1 [Clozapine],Very low,Extrapyramidal side effects (EPS) ([2]; listed as clozapine): negligible
–,–,Cc1nc2n(c(=O)c1CCN1CCC(c3noc4cc(F)ccc34)CC1)CCCC2 [Risperidone],Moderate,–
–,–,CN1CCN(C2=Nc3ccccc3Oc3ccc(Cl)cc32)CC1 [Loxapine],Moderate,–
–,–,Cc1cc2c(s1)Nc1ccccc1N=C2N1CCN(C)CC1 [Olanzapine],Very low,Extrapyramidal side effects (EPS) ([2]; listed as olanzapine): negligible
–,–,OCCOCCN1CCN(C2=Nc3ccccc3Sc3ccccc32)CC1 [Quitapine],Very low,–

Compound,Receptor internalization N1E-115 cells (pattern of internalization) [1],Receptor internalization SB1 cells (pattern of internalization) [3],Extrapyramidal side effects (EPS) [2],further results
O=C1CCc2ccc(OCCCCN3CCN(c4cccc(Cl)c4Cl)CC3)cc2N1 [Aripiprazole],Type A,Type A,Very low,–
